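1) Cells in 96-well plates. 2) Compound, 48 h, 5 concentrations. 3) Linear interpolation between surrounding doses. 4) Unreached endpoint = highest concentration. GI50 marks 50% less growth.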 The source made the active and inactive calls. No stated cut-off is given here; in the data, active = GI50 up to about 1.1 µM and inactive = higher.
What was measured:
Assay in all cases: DTP human tumour cell line panel, 48 h
786-0 = system: 786-0
A498 = system: A498
A549 = system: A549
ACHN = system: ACHN
CAKI-1 = system: CAKI-1
CCRF-CEM = system: CCRF-CEM
COLO 205 = system: COLO 205
DLD-1 = system: DLD-1
DMS-114 = system: DMS-114
DMS-273 = system: DMS-273
EKVX = system: EKVX
HCC 2998 = system: HCC 2998
HCT-116 = system: HCT-116
HCT-15 = system: HCT-15
HL-60 = system: HL-60
HOP-18 = system: HOP-18
HOP-62 = system: HOP-62
HOP-92 = system: HOP-92
HT-29 = system: HT-29
IGROV-1 = system: IGROV-1
K562 = system: K562
KM-20L2 = system: KM-20L2
KM12 = system: KM12
LOX IMVI = system: LOX IMVI
LXFL 529 = system: LXFL 529
M14 = system: M14
M19-MEL = system: M19-MEL
MOLT-4 = system: MOLT-4
Malme-3M = system: Malme-3M
NCI-H23 = system: NCI-H23
NCI-H460 = system: NCI-H460
NCI-H522 = system: NCI-H522
OVCAR-3 = system: OVCAR-3
OVCAR-4 = system: OVCAR-4
OVCAR-5 = system: OVCAR-5
OVCAR-8 = system: OVCAR-8
RPMI-8226 = system: RPMI-8226
RXF 393 = system: RXF 393
RXF 631 = system: RXF 631
SF-268 = system: SF-268
SF-295 = system: SF-295
SF-539 = system: SF-539
SK-MEL-28 = system: SK-MEL-28
SK-MEL-2 = system: SK-MEL-2
SK-MEL-5 = system: SK-MEL-5
SK-OV-3 = system: SK-OV-3
SN12C = system: SN12C
SNB-19 = system: SNB-19
SNB-75 = system: SNB-75
SW-620 = system: SW-620
TK-10 = system: TK-10
U-251 = system: U-251
UACC-257 = system: UACC-257
UACC-62 = system: UACC-62
UO-31 = system: UO-31
XF498 = system: XF498
NCI-H226 = system: NCI-H226
SNB-78 = system: SNB-78
SR = system: SR

Measured: GI50

COC(=O)CCC(=O)NC1C2CC3CC(C2)CC1C3 (stereo unspecified)
inactive: 786-0 > 100 µM | A498 > 100 µM | A549 > 100 µM | ACHN > 100 µM | CAKI-1 > 100 µM | CCRF-CEM > 100 µM | COLO 205 > 100 µM | DLD-1 > 100 µM | DMS-114 > 100 µM | DMS-273 > 100 µM | EKVX > 100 µM | HCC 2998 > 100 µM | HCT-116 > 100 µM | HL-60 > 100 µM | HOP-18 > 100 µM | HOP-62 > 100 µM | HOP-92 > 100 µM | HT-29 > 100 µM | IGROV-1 > 100 µM | K562 > 100 µM | KM-20L2 > 100 µM | KM12 > 100 µM | LOX IMVI > 100 µM | LXFL 529 > 100 µM | M14 > 100 µM | M19-MEL > 100 µM | MOLT-4 > 100 µM | Malme-3M > 100 µM | NCI-H23 > 100 µM | NCI-H460 > 100 µM | NCI-H522 > 100 µM | OVCAR-3 > 100 µM | OVCAR-4 > 100 µM | OVCAR-5 > 100 µM | OVCAR-8 > 100 µM | RPMI-8226 > 100 µM | RXF 393 > 100 µM | RXF 631 > 100 µM | SF-268 > 100 µM | SF-295 > 100 µM | SF-539 > 100 µM | SK-MEL-28 > 100 µM | SK-MEL-2 > 100 µM | SK-MEL-5 > 100 µM | SK-OV-3 > 100 µM | SN12C > 100 µM | SNB-19 > 100 µM | SNB-75 > 43.1 µM | SW-620 > 100 µM | TK-10 > 100 µM | U-251 > 100 µM | UACC-257 > 100 µM | UACC-62 > 100 µM | UO-31 > 100 µM | XF498 > 100 µM
> 100 µM: HCT-15

CCOC(=O)N1C2C=C(C)C(C3C(C)C(=O)N31)N(C(=O)c1ccccc1)O2 (stereo unspecified)
> 100 µM: HCT-15
inactive: 786-0 > 100 µM | A498 > 100 µM | A549 > 100 µM | ACHN > 100 µM | CAKI-1 > 100 µM | CCRF-CEM > 100 µM | COLO 205 > 100 µM | DLD-1 > 100 µM | DMS-114 > 100 µM | DMS-273 > 100 µM | EKVX > 100 µM | HCC 2998 > 100 µM | HCT-116 > 100 µM | HL-60 > 100 µM | HOP-18 > 100 µM | HOP-62 > 100 µM | HOP-92 > 100 µM | HT-29 > 100 µM | IGROV-1 > 100 µM | K562 > 100 µM | KM12 > 100 µM | LOX IMVI > 100 µM | LXFL 529 > 100 µM | M14 > 100 µM | M19-MEL > 100 µM | MOLT-4 > 100 µM | Malme-3M > 100 µM | NCI-H226 > 100 µM | NCI-H23 > 100 µM | NCI-H460 > 100 µM | OVCAR-3 > 100 µM | OVCAR-4 > 100 µM | OVCAR-5 > 100 µM | OVCAR-8 > 100 µM | RPMI-8226 > 100 µM | RXF 393 > 100 µM | RXF 631 > 100 µM | SF-268 > 100 µM | SF-295 > 100 µM | SF-539 > 100 µM | SK-MEL-28 > 100 µM | SK-MEL-2 > 100 µM | SK-MEL-5 > 100 µM | SK-OV-3 > 100 µM | SN12C > 100 µM | SNB-19 > 100 µM | SNB-75 > 100 µM | SNB-78 > 100 µM | SR > 100 µM | SW-620 > 100 µM | TK-10 > 100 µM | U-251 > 100 µM | UACC-257 > 100 µM | UACC-62 > 100 µM | UO-31 > 100 µM | XF498 > 100 µM

O=C1CCC(=O)C12CCc1ccccc12
inactive: 786-0 > 100 µM | A549 > 100 µM | ACHN > 100 µM | CAKI-1 > 100 µM | COLO 205 > 100 µM | DLD-1 > 100 µM | DMS-114 > 100 µM | DMS-273 > 100 µM | EKVX > 100 µM | HCC 2998 > 100 µM | HL-60 > 100 µM | HOP-18 > 100 µM | HOP-62 > 100 µM | HOP-92 > 100 µM | HT-29 > 100 µM | IGROV-1 > 100 µM | K562 > 10 µM | KM-20L2 > 100 µM | LOX IMVI > 100 µM | LXFL 529 > 100 µM | M14 > 100 µM | M19-MEL > 100 µM | Malme-3M > 100 µM | NCI-H23 > 100 µM | NCI-H460 > 100 µM | OVCAR-3 > 100 µM | OVCAR-4 > 100 µM | OVCAR-8 > 100 µM | RXF 393 > 100 µM | RXF 631 > 100 µM | SF-268 > 100 µM | SF-295 > 100 µM | SK-MEL-28 > 100 µM | SK-OV-3 > 100 µM | SN12C > 100 µM | SNB-75 > 100 µM | SW-620 > 100 µM | TK-10 > 100 µM | U-251 > 100 µM | UACC-62 > 100 µM | UO-31 > 100 µM | XF498 > 100 µM
> 100 µM: HCT-15
